# Assay results published in patent US5053392A, “Novel arginine, glycine, aspartic acid derivatives as platelet-aggregation inhibitors” (Rhone-Poulenc Rorer Pharmaceuticals Inc., priority 1989, dated 1991).
# Non-standard residues stand in square brackets, D forms with d. Residues, ends and D or L forms follow the SMILES beside them. ξ: configuration not given here. Aze = O=C(O)[C@@H]1CCN1; ξPip = O=C(O)C1CCCCN1; Ava = NCCCCC(=O)O
# Key:
# [1] = system: thrombin-stimulated platelets; assay: Inhibition of radiolabeled (125I) fibrinogen binding assay; conditions: for Inhibition of 125I-Fibrinogen Binding to Platelet, inhibition at 50 μg/ml: at 50 μg/ml (footnote *); for IC50: thrombin-stimulated platelets, read-out: Inhibition of 125I-Fibrinogen Binding to Platelet IC50
# Procedure: I. Inhibition of Radiolabeled (125I) Fibrinogen Binding Assay, which is essentially based on the method described in Proc Natl. Acad. Sci. U.S.A. Vol. 83, pp. 5708-5712, August 1986, and is as follows.
# Platelets are washed free of plasma constitutes by the albumin density-gradient technique. In each experimental mixture platelets in modified Tyrode's buffer are stimulated with human α-thrombin at 22°-25° C. for 10 minutes (3.125×10" platelets per liter and thrombin at […]). Hirudin is then added at a 25-fold excess for 5 minutes before addition of the radiolabeled ligand and any competing ligand. After these additions, the final platelet count in the mixture is […], bound and free ligand are separated by centrifuging 50 μl of the mixture through 300 μl of 20% sucrose at 12,000×g for 4 minutes. The platelet pellet is then separated from the rest of the mixture to determine platelet-bound radioactivity. Nonspecific binding is measured in mixtures containing an excess of unlabeled ligand. When binding curves are analyzed by Scatchard analysis, nonspecific binding is derived as a fitted parameter from the binding isotherm by means of a computerized program. To determine the concentration of each inhibitory compound necessary to inhibit 50% of fibrinogen binding to thrombin-stimulated platelets (IC50), each compound is tested at 0.176 μgmol/liter (60 μg/ml). The IC50 is derived by plotting residual fibrinogen binding against the logarithm of the sample compound's concentration.
# Human Platelets = assay: Inhibition of fibrinogen-mediated platelet aggregation; type: cell-based; conditions: for IC50: thrombin-activated human platelets, rate of aggregation
# Procedure: II. Inhibition of Fibrinogen - Mediated Platelet Aggregation, which is essentially based on the method described in Blood, Vol. 66, No. 4, October 1985, pp. 846-952, and is as follows.
# Human Platelets were isolated from freshly drawn whole blood and were suspended in 0.14 mol/L NaCl, 2.7 mmol/L […], 12 mmol/L NaHCO3, 0.42 mmol/L Na2 HPO4, 0.55 mmol/L glucose, and 5 mmol/L Hepes, pH 7.35 at 2×10^8 platelets/ml. The suspension was incubated at 37° C. An aliquot of 0.4 ml of platelet suspension was activated by human thrombin at a final concentration of 2 μg/ml of thrombin for one minute. After one minute the reaction was stopped by a thrombin inhibitor. Serial dilution of the compound being tested was then added to the activated platelet, the reaction was allowed to proceed for one minute, followed by the addition of human fibrinogen at a final concentration of […] of fibrinogen. Platelet aggregation was then recorded by an aggregometer. Rate of aggregation was used to calculate IC50.
IC50 (Human Platelets) [µM],IC50 [1] [µM],SMILES,"Inhibition of 125I-Fibrinogen Binding to Platelet, inhibition at 50 μg/ml [1]",Inhibition of Fibrinogen Mediated Platelet Aggregation % inhibition at 100 μM (Human Platelets) [%]
> 100,,"CC(C)[C@H](NC(=O)[C@H](CC(=O)O)NC(=O)[C@@H]1CCCN1C(=O)[C@@H](N)CCCNC(=N)N)C(=O)O [L-arginyl-L-prolyl-L-aspartyl-L-valine, L-Arginyl-L-prolyl-L-aspartyl-L-valine] (H-RPDV-OH)",* (Inhibited less than 50% at 50 μg/ml),25
59,> 200,CC(C)[C@H](NC(=O)[C@H](CC(=O)O)NC(=O)[C@@H]1CCN1C(=O)CCCCN)C(=O)O [N-(5-aminopentanoyl)-azetidin-(2S)-carboxyl-Asp-Val] (H-[Ava][Aze]DV-OH),,74
13,13,CC(C)[C@H](NC(=O)[C@H](CC(=O)O)NC(=O)[C@@H]1CCN1C(=O)[C@@H](N)CCCNC(=N)N)C(=O)O [N-(L-arqinyl)-azetidine-(2S)-carboxyl-Asp-Val] (H-R[Aze]DV-OH),,91
28.6,,CC(C)[C@H](NC(=O)[C@H](CC(=O)O)NC(=O)C1CCCCN1C(=O)[C@@H](N)CCCNC(=N)N)C(=O)O (stereo partly drawn) [N-[1-(L-arginyl)piperidin-2-yl-carbonyl]-L-aspartyl-L-valine] (H-R[ξPip]DV-OH),* (Inhibited less than 50% at 50 μg/ml),73
